In patent US10294202B2, “Pyrrolidinones as herbicides” (FMC Corporation, priority 2013, dated 2019):

How the values were obtained:
barnyardgrass [1] = assay: Test A pre-/postemergence herbicide test; type: in vivo, Echinochloa crus-galli
Summary of the method: (§1)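 Both application timings used compounds in a non-phytotoxic solvent plus surfactant. Pre-emergence: soil sprayed directly after seeding into loam/sand. Post-emergence: foliage of 2–10 cm seedlings (1–2 leaves) sprayed. Injury rated ~10 days later, 0–100.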

crabgrass, large = assay: Test A pre-/postemergence herbicide test; type: in vivo, Digitaria sanguinalis
Summary of the method: as §1

giant foxtail = assay: Test A pre-/postemergence herbicide test; type: in vivo, Setaria faberii
Summary of the method: as §1

morningglory = assay: Test A pre-/postemergence herbicide test; type: in vivo, Ipomoea spp.
Summary of the method: as §1

pigweed = assay: Test A pre-/postemergence herbicide test; type: in vivo, Amaranthus retroflexus
Summary of the method: as §1

velvetleaf = assay: Test A pre-/postemergence herbicide test; type: in vivo, Abutilon theophrasti
Summary of the method: as §1

wheat = assay: Test A pre-/postemergence herbicide test; type: in vivo, Triticum aestivum
Summary of the method: as §1

corn = assay: Test A pre-/postemergence herbicide test; type: in vivo, Zea mays
Summary of the method: as §1

rice = assay: Test C flooded paddy test; type: in vivo, Oryza sativa; conditions: Flood
Summary of the method: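 2-leaf stage; flood 3 cm over soil; compound into paddy water; depth held; greenhouse 13–15 d; visual % control vs untreated (0 = none, 100 = complete); "-" = not tested.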

sedge, umbrella = assay: Test C flooded paddy test; type: in vivo, Cyperus difformis; conditions: Flood
From the text: (§2) Plant species in the flooded paddy test consisted of rice (Oryza sativa), sedge, umbrella (small-flower umbrella sedge, Cyperus difformis), ducksalad (Heteranthera limosa), and barnyardgrass (Echinochloa crus-galli) grown to the 2-leaf stage for testing. At time of treatment, test pots were flooded to 3 cm above the soil surface, treated by application of test compounds directly to the paddy water, and then maintained at that water depth for the duration of the test. Treated plants and controls were maintained in a greenhouse for 13 to 15 days, after which time all species were compared to controls and visually evaluated. Plant response ratings, summarized in Table C, are based on a scale of 0 to 100 where 0 is no effect and 100 is complete control. A dash (-) response means no test result.

ducksalad = assay: Test C flooded paddy test; type: in vivo, Heteranthera limosa; conditions: Flood
From the text: as §2

barnyardgrass [2] = assay: Test C flooded paddy test; type: in vivo, Echinochloa crus-galli; conditions: Flood
From the text: as §2

[3] = Postemergence, 125 g ai/ha, 0 to 100 scale, 0 no effect, 100 complete control
[4] = Postemergence, 500 g ai/ha, 0 to 100 scale (0 no effect, 100 complete control)
[5] = Preemergence, 125 g ai/ha, visual rating on 0 to 100 scale (0 no effect, 100 complete control)
[6] = preemergence, 500 g ai/ha, 0 to 100 scale (0 no effect, 100 complete control)
[7] = preemergence, 500 g ai/ha, 0 to 100 scale
[8] = 31 g ai/ha, scale of 0 to 100 where 0 is no effect and 100 is complete control, 13 to 15 days
[9] = 62 g ai/ha, scale of 0 to 100 where 0 is no effect and 100 is complete control, 13 to 15 days
[10] = 125 g ai/ha, scale of 0 to 100 where 0 is no effect and 100 is complete control, 13 to 15 days
[11] = Postemergence, 1000 g ai/ha, 0 to 100 scale (0 no effect, 100 complete control)
[12] = Preemergence, 1000 g ai/ha, visual rating on 0 to 100 scale (0 no effect, 100 complete control), approx. 10 days

Compound: O=C1NCC(c2cccc(C(F)(F)F)c2)C1C(=O)Nc1ccccc1C(F)(F)F (racemic) [Compound 4]
- Plant response rating, Barnyardgrass (barnyardgrass [1]; [3]): 60
- Plant response rating, Barnyardgrass (barnyardgrass [1]; [4]): 70
- Barnyardgrass plant response rating (barnyardgrass [1]; [5]): 60
- Plant response rating, Barnyardgrass (barnyardgrass [1]; [6]): 80
- Plant response rating, Crabgrass, Large (crabgrass, large; [3]): 60
- Plant response rating, Crabgrass, Large (crabgrass, large; [4]): 80
- Crabgrass, Large plant response rating (crabgrass, large; [5]): 90
- Plant response rating, Crabgrass, Large (crabgrass, large; [7]): 90
- Plant response rating, Foxtail, Giant (giant foxtail; [3]): 60
- Plant response rating, Foxtail, Giant (giant foxtail; [4]): 70
- Foxtail, Giant plant response rating (giant foxtail; [5]): 80
- Plant response rating, Foxtail, Giant (giant foxtail; [7]): 90
- Plant response rating, Morningglory (morningglory; [4]): 30
- Morningglory plant response rating (morningglory; [5]): 0
- Plant response rating, Morningglory (morningglory; [7]): 0
- Plant response rating, Pigweed (pigweed; [4]): 50
- Pigweed plant response rating (pigweed; [5]): 0
- Plant response rating, Pigweed (pigweed; [7]): 0
- Plant response rating, Velvetleaf (velvetleaf; [4]): 0
- Velvetleaf plant response rating (velvetleaf; [5]): 0
- Plant response rating, Velvetleaf (velvetleaf; [7]): 0
- Plant response rating, Wheat (wheat; [4]): 50
- Wheat plant response rating (wheat; [5]): 60
- Plant response rating, Wheat (wheat; [7]): 70
- Plant response rating, Corn (corn; [3]): 0
- Plant response rating, Corn (corn; [4]): 50
- Corn plant response rating (corn; [5]): 0
- Plant response rating, Corn (corn; [7]): 0
- Plant response rating, Rice (rice; [8]): 0
- Plant response rating, Rice (rice; [9]): 0
- Plant response rating, Rice (rice; [10]): 0
- Plant response rating, Rice (rice; 250 g ai/ha, scale 0 to 100): 0
- Plant response rating, Sedge, Umbrella (sedge, umbrella; [8]): 0
- Plant response rating, Sedge, Umbrella (sedge, umbrella; [9]): 0
- Plant response rating, Sedge, Umbrella (sedge, umbrella; [10]): 0
- Plant response rating, Sedge, Umbrella (sedge, umbrella; 250 g ai/ha, scale 0 to 100): 0
- Plant response rating, Ducksalad (ducksalad; [8]): 20
- Plant response rating, Ducksalad (ducksalad; [9]): 30
- Plant response rating, Ducksalad (ducksalad; [10]): 80
- Plant response rating, Ducksalad (ducksalad; 250 g ai/ha, scale 0 to 100): 85
- Plant response rating, Barnyardgrass (barnyardgrass [2]; [8]): 0
- Plant response rating, Barnyardgrass (barnyardgrass [2]; [9]): 0
- Plant response rating, Barnyardgrass (barnyardgrass [2]; [10]): 30
- Plant response rating, Barnyardgrass (barnyardgrass [2]; 250 g ai/ha, scale 0 to 100): 40

Compound: N#Cc1ccccc1NC(=O)C1C(=O)NCC1c1ccc(Cl)c(Cl)c1 (racemic) [Compound 15]
- Plant response rating, Barnyardgrass (barnyardgrass [1]; [3]): 0
- Plant response rating, Barnyardgrass (barnyardgrass [1]; [4]): 0
- Barnyardgrass plant response rating (barnyardgrass [1]; [5]): 0
- Plant response rating, Barnyardgrass (barnyardgrass [1]; [6]): 0
- Plant response rating, Crabgrass, Large (crabgrass, large; [3]): 0
- Plant response rating, Crabgrass, Large (crabgrass, large; [4]): 0
- Crabgrass, Large plant response rating (crabgrass, large; [5]): 60
- Plant response rating, Crabgrass, Large (crabgrass, large; [7]): 80
- Plant response rating, Foxtail, Giant (giant foxtail; [3]): 0
- Plant response rating, Foxtail, Giant (giant foxtail; [4]): 0
- Foxtail, Giant plant response rating (giant foxtail; [5]): 20
- Plant response rating, Foxtail, Giant (giant foxtail; [7]): 50
- Plant response rating, Morningglory (morningglory; [3]): 0
- Plant response rating, Morningglory (morningglory; [4]): 0
- Morningglory plant response rating (morningglory; [5]): 0
- Plant response rating, Morningglory (morningglory; [7]): 0
- Plant response rating, Pigweed (pigweed; [3]): 0
- Plant response rating, Pigweed (pigweed; [4]): 0
- Pigweed plant response rating (pigweed; [5]): 0
- Plant response rating, Pigweed (pigweed; [7]): 0
- Plant response rating, Velvetleaf (velvetleaf; [3]): 0
- Plant response rating, Velvetleaf (velvetleaf; [4]): 0
- Velvetleaf plant response rating (velvetleaf; [5]): 0
- Plant response rating, Velvetleaf (velvetleaf; [7]): 0
- Plant response rating, Wheat (wheat; [3]): 0
- Plant response rating, Wheat (wheat; [4]): 0
- Wheat plant response rating (wheat; [5]): 0
- Plant response rating, Wheat (wheat; [7]): 0
- Plant response rating, Corn (corn; [3]): 0
- Plant response rating, Corn (corn; [4]): 0
- Corn plant response rating (corn; [5]): 0
- Plant response rating, Corn (corn; [7]): 0
- Plant response rating, Rice (rice; [9]): 0
- Plant response rating, Rice (rice; 250 g ai/ha, scale 0 to 100): 0
- Plant response rating, Sedge, Umbrella (sedge, umbrella; [9]): 0
- Plant response rating, Sedge, Umbrella (sedge, umbrella; 250 g ai/ha, scale 0 to 100): 0
- Plant response rating, Ducksalad (ducksalad; [9]): 0
- Plant response rating, Ducksalad (ducksalad; 250 g ai/ha, scale 0 to 100): 0
- Plant response rating, Barnyardgrass (barnyardgrass [2]; [9]): 0
- Plant response rating, Barnyardgrass (barnyardgrass [2]; 250 g ai/ha, scale 0 to 100): 0

Compound: O=C1NCC(c2ccc(F)c(F)c2)C1C(=O)Nc1ccccc1[N+](=O)[O-] (racemic) [Compound 20]
- Plant response rating, Barnyardgrass (barnyardgrass [1]; [11]): 80
- Plant response rating, Barnyardgrass (barnyardgrass [1]; [12]): 90
- Plant response rating, Crabgrass, Large (crabgrass, large; [11]): 90
- Plant response rating, Crabgrass, Large (crabgrass, large; [12]): 90
- Plant response rating, Foxtail, Giant (giant foxtail; [11]): 80
- Plant response rating, Foxtail, Giant (giant foxtail; [12]): 90
- Plant response rating, Morningglory (morningglory; [11]): 0
- Plant response rating, Morningglory (morningglory; [12]): 0
- Plant response rating, Pigweed (pigweed; [11]): 0
- Plant response rating, Pigweed (pigweed; [12]): 0
- Plant response rating, Velvetleaf (velvetleaf; [11]): 0
- Plant response rating, Velvetleaf (velvetleaf; [12]): 30
- Plant response rating, Wheat (wheat; [11]): 20
- Plant response rating, Wheat (wheat; [12]): 0
- Plant response rating, Corn (corn; [11]): 0
- Plant response rating, Corn (corn; [12]): 0
- Plant response rating, Rice (rice; [8]): 0
- Plant response rating, Rice (rice; [9]): 0
- Plant response rating, Rice (rice; [10]): 0
- Plant response rating, Rice (rice; 250 g ai/ha, scale 0 to 100): 0
- Plant response rating, Sedge, Umbrella (sedge, umbrella; [8]): 0
- Plant response rating, Sedge, Umbrella (sedge, umbrella; [9]): 0
- Plant response rating, Sedge, Umbrella (sedge, umbrella; [10]): 0
- Plant response rating, Sedge, Umbrella (sedge, umbrella; 250 g ai/ha, scale 0 to 100): 0
- Plant response rating, Ducksalad (ducksalad; [8]): 0
- Plant response rating, Ducksalad (ducksalad; [9]): 0
- Plant response rating, Ducksalad (ducksalad; [10]): 0
- Plant response rating, Ducksalad (ducksalad; 250 g ai/ha, scale 0 to 100): 0
- Plant response rating, Barnyardgrass (barnyardgrass [2]; [8]): 0
- Plant response rating, Barnyardgrass (barnyardgrass [2]; [9]): 0
- Plant response rating, Barnyardgrass (barnyardgrass [2]; [10]): 0
- Plant response rating, Barnyardgrass (barnyardgrass [2]; 250 g ai/ha, scale 0 to 100): 0
